Test [1] has as its system vitelline capillaries of 3- to 5-day chick embryo. Put plainly: Chick embryo vitelline capillary regression assay. Format: in vivo. More on the design: key to Vascular reactivity (capillary regression): + = Vascular reactivity; 0 = No vascular reactivity; +/− = Equivocal reactivity. Conditions: 60 minutes. The method, then: Using the chick embryo vitelline capillaries assay, compounds were tested for their ability to induce capillary regression. Each compound was applied in 0.1 ml of 15% Ficol 400 and PBS onto the embryo, and vascular regression was assessed after 60 minutes.
The 3-day chick embryo consists of an embryonic disc from which numerous vessels emerge and return, forming a “figure 8”-shaped structure—the embryo in the center with vascular loops extending outward over both poles. […] Following a lag period of around 15 minutes, the constriction of continuity between capillary and secondary vessels, generally on the “venous” side, was observed. Continued pulsatile blood flow progressed, resulting in a “swelling” of the blind tube, followed by a pinching off of the remaining connection and formation of an enclosed vascular sac resembling a “blood island.” This process progressed until only the largest vessels remained intact.

In a further test the test system is E. coli. Briefly: Antibiotic activity, MIC. Format: cell-based. The conditions noted are these: Escherichia coli.
Test [2] has as its system human microvascular cells. Put plainly: Endothelial cord formation assay. For Effect on endothelial cord formation: key: + = Inhibition of angiogenesis; − = No inhibition of angiogenesis; T = Toxic; *= cell rounding @ 10 µg/ml. Format: cell-based. An excerpt:
Endothelial cells have the capacity in vitro to form tubular aggregates resembling capillaries in various early stages of formation. This conversion occurs under relatively specific conditions, in which essential growth factors along with an effective substratum are provided. It has been shown that both the interaction of growth factors with the endothelial cell and its attachment to a substratum activate the NHE. The activation of this exchanger is believed to be required for subsequent morphologic transformation of the endothelial cell into a multicellular tubular structure.
To assess the effect of compounds on the cord-like structures formed by human microvascular cells when plated in the presence of VGEF (Vascular Endothelial Growth Factor) and basic fibroblast growth factor on a collagen matrix, a standard cord formation assay was used.

The test system of the next test is S. aureus. Briefly: Antibiotic activity, MIC. The conditions noted are these: Staphylococcus aureus. The test is classed as cell-based.

Here are results for 25 molecules from patent US6962909B2, “Treatment of neovascularization disorders with squalimine” (Genaera Corporation, priority 1995, dated 2005).

By MIC is commonly meant the lowest concentration that inhibits growth of the organism.

The structures appear in SMILES notation. In brackets after ≈: the same amount, converted by molar mass. Where only a bound is given, the exact number is not on record here.

In the case of `CC(CCC(=O)O)[C@H]1CCC2C3CC[C@H]4C[C@H](NCCCNCCCCN)CC[C@]4(C)C3CC[C@@]21C` (stereo partly drawn) [Compound 318], in test [1] (1 μg applied), the “Vascular reactivity (capillary regression)” value (shortened to “Vascular reactivity”) was 0.

Consider `COC(=O)CCC(C)[C@H]1CCC2C3C[C@@H](O)[C@H]4C[C@H](NCCN)CC[C@]4(C)C3CC[C@@]21C` (stereo partly drawn), for which, in the test with E. coli, the MIC was in the range of 32 to 64 µg/mL (≈ 71.3 to 143 µM).

Turning to `CC(CCC(=O)O)[C@H]1CCC2C3CC[C@@H]4C[C@H](NCCCNCCCCNCCCN)CC[C@]4(C)C3C[C@H](O)[C@@]21C` (stereo partly drawn) [Compound 449], in test [2] (1.0 μg/ml), the “Effect on endothelial cord formation” value is given as “−”.

With `CC(CCC(=O)O)[C@H]1CCC2C3C(CC[C@@]21C)[C@@]1(C)CC[C@H](NCCN)C[C@H]1C[C@H]3O` (stereo partly drawn) [Compound 415], the “Effect on endothelial cord formation” value was “−” in test [2] (0.1 μg/ml), “−” in test [2] (1.0 μg/ml) and “+/T” in test [2] (10.0 μg/ml). Besides, the “Vascular reactivity” value in test [1] (0.001 μg applied) is reported as 0; in test [1] (0.01 μg applied), “+”; in test [1] (0.1 μg applied), “+”; in test [1] (1 μg applied), “+”.

Regarding `CC(CCC(=O)O)[C@H]1CCC2C3C(CC[C@@]21C)[C@@]1(C)CC[C@H](NCCCNCCCCNCCCN)C[C@@H]1C[C@H]3O` (stereo partly drawn), the MIC in the test on S. aureus is 16 µg/mL (≈ 27.7 µM); in the test on E. coli, 32 to 64 µg/mL (≈ 55.5 to 111 µM).

Consider `CC(CCC(=O)O)[C@H]1CCC2C3C(CC[C@@]21C)[C@@]1(C)CC[C@@H](NCCCNCCCCNCCCN)C[C@H]1C[C@H]3O` (stereo partly drawn) [drawing 72], for which the MIC against S. aureus was determined as 8 µg/mL (≈ 13.9 µM).

Consider `COC(=O)CCC(C)[C@H]1CCC2C3C(CC[C@@]21C)[C@@]1(C)CC[C@H](NCCCNCCCCNCCCN)C[C@H]1C[C@H]3O` (stereo partly drawn) [Compound 411], for which the “Effect on endothelial cord formation” value in test [2] (0.1 μg/ml) is reported as “−”; in test [2] (1.0 μg/ml), “−”; in test [2] (10.0 μg/ml), “+”. In addition, the “Vascular reactivity” value in test [1] (0.001 μg applied) was 0; in test [1] (0.01 μg applied), 0; in test [1] (0.1 μg applied), 0; in test [1] (1 μg applied), “+/−”.

Take `CC(CCC(=O)O)[C@H]1CCC2C3C(CC[C@@]21C)[C@@]1(C)CC[C@H](NCCCNCCCCNCCCN)C[C@H]1C[C@H]3O` (stereo partly drawn) [drawing 154]: the “Cord Formation, Minimum Effective Concentration” value in test [2] is more than 10 µg/mL.

For the molecule `COC(=O)CCC(C)[C@H]1CCC2C3C(CC[C@@]21C)[C@@]1(C)CC[C@H](NCCCNCCCCN)C[C@H]1C[C@H]3O` (stereo partly drawn), the MIC against S. aureus was determined as 64 µg/mL (≈ 120 µM); in the test with E. coli it was 256 µg/mL (≈ 480 µM).

`COC(=O)CCC(C)[C@H]1CCC2C3C(CC[C@@]21C)[C@@]1(C)CC[C@@H](NCCN)C[C@H]1C[C@H]3O` (stereo partly drawn) [drawing 118]: the “Cord Formation, Minimum Effective Concentration” value in test [2] amounted to 10 µg/mL.

Turning to `CC(CCC(=O)O)[C@H]1CCC2C3C(CC[C@@]21C)[C@@]1(C)CC[C@H](NCCN)C[C@H]1C[C@H]3O` (stereo partly drawn), the “Cord Formation, Minimum Effective Concentration” value in test [2] is more than 10 µg/mL.

Turning to `COC(O)CCC(C)[C@H]1CCC2C3C(CC[C@@]21C)[C@@]1(C)CC[C@H](NCCCNCCCCNCCCN)C[C@H]1C[C@H]3O` (stereo partly drawn), in test [2], the “Cord Formation, Minimum Effective Concentration” value was determined as 10 µg/mL.

On to `CC(CCC(=O)O)[C@H]1CCC2C3C(CC[C@@]21C)[C@@]1(C)CC[C@H](NCCCNCCCCN)C[C@@H]1C[C@H]3O` (stereo partly drawn) [Compound 381], for which the “Vascular reactivity” value in test [1] (1 μg applied) amounted to 0.

As for `CO[C@@H]1[C@H](OC(=O)/C=C/C=C/C=C/C=C/C(=O)O)CC[C@]2(CO2)[C@H]1[C@@]1(C)O[C@@H]1CC=C(C)C` [Fumagillin, reference compound], the “Concentration that inhibits cord formation” value in test [2] worked out at 10 µg/mL. Besides, the “Effect on endothelial cord formation” value was “−” in test [2] (0.1 μg/ml) and “+” in test [2] (10.0 μg/ml).

On to `CC(C)CCCC(C)[C@H]1CCC2C3CC[C@H]4C[C@@H](NCCCNCCCCN)CC[C@]4(C)C3CC[C@@]21C` (stereo partly drawn) [Compound 303], for which, in test [1] (1 μg applied), the “Vascular reactivity” value was 0.

In the case of `CC(CCC(=O)O)[C@H]1CCC2C3C(CC[C@@]21C)[C@@]1(C)CC[C@@H](NCCCNCCCCNCCCN)C[C@H]1C[C@H]3O` (stereo partly drawn) [drawing 152], in test [2], the “Cord Formation, Minimum Effective Concentration” value was more than 10 µg/mL.

For `CC(CCC(=O)O)[C@H]1CCC2C3C(CC[C@@]21C)[C@@]1(C)CC[C@H](NCCCNCCCCNCCCN)C[C@H]1C[C@H]3O` (stereo partly drawn) [drawing 73], the minimum inhibitory concentration (MIC) was 8 µg/mL (≈ 13.9 µM) against S. aureus and 256 µg/mL (≈ 444 µM) with E. coli.

For the molecule `COC(=O)CCC(C)[C@H]1CCC2C3C(CC[C@@]21C)[C@@]1(C)CC[C@H](NCCCNCCCCNCCCN)C[C@H]1C[C@H]3O` (stereo partly drawn), 64 µg/mL (≈ 108 µM) was the least that counted as inhibitory against E. coli (MIC).

As to `CC(CCC(=O)O)[C@H]1CCC2C3C(CC[C@@]21C)[C@@]1(C)CC[C@@H](NCCCNCCCCN)C[C@@H]1C[C@H]3O` (stereo partly drawn) [Compound 382], the “Vascular reactivity” value was 0 in test [1] (0.001 μg applied); 0 in test [1] (0.01 μg applied); 0 in test [1] (0.1 μg applied); “+” in test [1] (1 μg applied); “+” in test [1] (10 μg applied).

In the case of `COC(=O)CCC(C)[C@H]1CCC2C3C(CC[C@@]21C)[C@@]1(C)CC[C@H](NCCCNCCCCNCCCN)C[C@@H]1C[C@H]3O` (stereo partly drawn) [Compound 396], the “Vascular reactivity” value in test [1] (0.001 μg applied) is 0; in test [1] (0.01 μg applied), 0; in test [1] (0.1 μg applied), 0; in test [1] (1 μg applied), “+”.

`CC(C)CCCC(C)[C@H]1CCC2C3C(CC[C@@]21C)[C@@]1(C)CC[C@H](N)C[C@@H]1C[C@H]3O` (stereo partly drawn): the MIC with S. aureus is 2 µg/mL (≈ 4.95 µM); in the test with E. coli, more than 256 µg/mL.

`CC(C)CCCC(C)[C@H]1CCC2C3C(CC[C@@]21C)[C@@]1(C)CC[C@H](N)C[C@@H]1C[C@H]3O` (stereo partly drawn) [Compound 1364]: the “Vascular reactivity” value in test [1] (0.001 μg applied) is on record as 0; in test [1] (0.01 μg applied), 0; in test [1] (0.1 μg applied), 0; in test [1] (1 μg applied), “+”; in test [1] (10 μg applied), “+”.

Regarding `COC(=O)CCC(C)[C@H]1CCC2C3C(CC[C@@]21C)[C@@]1(C)CC[C@@H](NCCCNCCCCN)C[C@H]1C[C@H]3O` (stereo partly drawn), the MIC against S. aureus was 4 µg/mL (≈ 7.49 µM); in the test with E. coli, 32 to 64 µg/mL (≈ 59.9 to 120 µM).

`CC(CCC(=O)O)[C@H]1CCC2C3C[C@@H](O)[C@H]4C[C@@H](NCCCNCCCCNCCCN)CC[C@]4(C)C3CC[C@@]21C` (stereo partly drawn) [Compound 467]: the “Effect on endothelial cord formation” value in test [2] (1.0 μg/ml) and in test [2] (10.0 μg/ml) was “−” in each case.

In the case of `COC(=O)CCC(C)[C@H]1CCC2C3C(CC[C@@]21C)[C@@]1(C)CC[C@@H](NCCN)C[C@H]1C[C@H]3O` (stereo partly drawn) [drawing 70], the MIC with S. aureus and against E. coli was 16 µg/mL (≈ 35.7 µM) each time.
